Reference: publication PMC6385020 (Molecules, 2019)

Tests used:
[1] = test system: F-myc-T (DNA, G4) TGAGGGTGGGTAGGGTGGGTAA; test: FRET-melting; conditions: 1 mM KCl, 99 mM LiCl; 10 mM lithium cacodylate pH 7.3; 1 µM compound, 0.2 µM DNA
[2] = test system: c-myc* (DNA, G4) TGAGGGTGGGTAGGGTGGGTAA; test: denaturing gel electrophoresis, 3'-exonuclease digestion; conditions: 100 mM KCl or KClO4; covalent; platination mainly A21/A22, also A12/G13; 18 h, 32 °C, 10 µM DNA
[3] = test system: F-21-T (DNA, G4) GGGTTAGGGTTAGGGTTAGGG; test: FRET-melting; conditions: 10 mM KCl, 90 mM LiCl; 10 mM lithium cacodylate pH 7.3; 1 µM compound, 0.2 µM DNA
[4] = test system: F-21CTA-T (DNA, G4) AGGGCTAGGGCTAGGGCTAGGG; test: FRET-melting; conditions: 1 mM KCl, 99 mM LiCl; 10 mM lithium cacodylate pH 7.3; 1 µM compound, 0.2 µM DNA
[5] = test system: 22AG (DNA, G4) AGGGTTAGGGTTAGGGTTAGGG; test: G4-FID, TO-PRO-3 displacement; conditions: 100 mM KCl; 10 mM lithium cacodylate pH 7.3, 1% DMSO; TO-PRO-3 displaced; 1 µM compound, 0.25 µM DNA
[6] = test system: CEB25-WT (DNA, G4) AAGGGTGGGTGTAAGTGTGGGTGGGT; test: G4-FID, TO-PRO-3 displacement; conditions: 100 mM KCl; 10 mM lithium cacodylate pH 7.3, 1% DMSO; TO-PRO-3 displaced; 1 µM compound, 0.25 µM DNA

Row | SMILES | ΔTm [1] [°C] | binding [2] | ΔTm [3] [°C] | ΔTm [4] [°C] | % TO-PRO-3 displacement [5] | % TO-PRO-3 displacement [6]
1 | Cc1ccc(-c2cc(-c3ccccn3)nc(-c3ccccn3)c2)cc1.[Cl-].[Cl][Pt+] [Pt-ttpy] | > 10 | yes | > 10 | > 10 | – | –
2 | CN(C)c1ccc(/C=C/c2cc(-c3ccccn3)nc(-c3ccccn3)n2)cc1.[Cl-].[Cl][Pt+] [Pt-vpym, Chloro-(E)-4-(2-(2,6-di(pyridin-2-yl)pyrimidin-4-yl)vinyl)-N,N-dimethylaniline-platinum(II) Chloride] | – | – | – | – | ~ 30% | ~ 30%
